Measurements from patent US20170142972A1, “ANTIMICROBIAL COMPOSITION INHIBITS BACTERIA AND FUNGI” (Troy Corporation, priority 2017, published 2017).

Tested on: Pseudomonas aeruginosa (ATCC #10145), Escherichia coli (ATCC #11229), Enterobacter aerogenes (ATCC #13048), and Alcaligenes faecalis (ATCC #25094)
Experiment: Challenge Method for Quantifying Antibacterial Effectiveness (two 7-day cycles, mixed bacterial inoculum)
Type: cell-based
Settings: agent alone
Procedure: In order to quantify the relative antibacterial effectiveness of an antimicrobial composition, samples are prepared by adding various amounts of the antimicrobial composition to identical volumes of a sterile test material. […] Each of the samples is subjected to a two-part challenge procedure and the sample that provides acceptable anti-bacterial protection with the lowest concentration of the antimicrobial composition is identified. Each part of the anti-bacterial challenge consists of a 7-day test cycle. The parts are performed consecutively over 14 test days. […] Challenge testing is accomplished using a mixed bacterial inoculum as the contamination event. These bacteria are Pseudomonas aeruginosa (ATCC #10145), Escherichia coli (ATCC #11229), Enterobacter aerogenes (ATCC #13048), and Alcaligenes faecalis (ATCC #25094). To make the test inoculum, each type of bacteria is grown separately in nutrient broth. Just before use in the challenge test, equal volumes of the four types of bacteria are blended together to make a mixed inoculum. After incubation, both control blanks and samples containing preservative are inoculated with the mixed inoculum. […] Performance ratings of 0, 1, 2, 3 or 4 for each test sample are determined by visual inspection according to the definitions set forth below in Table 1.

`O=c1[nH]sc2ccccc12` [BIT, benzisothiazolinone] was tested, and the “concentration alone required to provide the required protection against bacterial growth on Test Day 14” value (adhesive) was “at least 0.013%” and the “concentration alone required to provide the required protection against bacterial growth on Test Day 14” value (paint) was “at least 0.004%”.
